Test results as given in patent US20190010236A1, “METHODS AND COMPOSITIONS FOR DECTIN-2 STIMULATION AND CANCER IMMUNOTHERAPY” (The Board of Trustees of the Leland Stanford Junior …, priority 2015, published 2019).

Experiments:
PDAC cells = assay: High-mannose glycan display on kifunensine-treated tumor cells (concavalin A staining); assay type: cell-based; conditions: tumor cells treated with kifunensine for 3 days
Method: (§1) FIG. 5A-5D. Mannosidase inhibition with kifunensine induces high-mannose glycan display and increases tumor cell immunogenicity. (FIG. 5A-5C) PDAC cells were treated with kifunensine for 3 days prior to flow cytometric analysis (FIG. 5A) or coculture with TAM (FIG. 5B, FIG. 5C). (FIG. 5A) PDAC cells stained with the mannose-binding lectin, concavalin A. (FIG. 5B, FIG. 5C) Pretreated PDAC cells were labeled with CSFE and cocultured overnight with TAM to assess cytokine production (FIG. 5B) and tumor cell uptake (FIG. 5C) by Dectin-2-expressing TAM. In some experiments, TAM were treated with Dectin-2-blocking antibodies prior to coculture with PDAC cells (FIG. 5C). *, p<0.05 by Student's t-test. (FIG. 5D) Subcutaneous PDAC tumors from kifunensine-treated mice (i.p., q2d for 7 days) were analyzed by flow cytometry. CD8 T cells (CD8^+CD90^+) among total tumor-infiltrating immune cells are gated.

[1] = tested on: tumor-associated myeloid cells (TAM cells); assay: Coculture of kifunensine-pretreated PDAC cells with TAM (cytokine production, tumor cell uptake); assay type: cell-based; conditions: kifunensine-pretreated PDAC cells cocultured overnight with TAM; Dectin-2-dependent
Method: as §1

subcutaneous PDAC tumors = assay: Kifunensine treatment of mice with subcutaneous PDAC tumors; assay type: in vivo; conditions: kifunensine i.p., q2d for 7 days
Method: as §1

human monocytes = assay: Flow cytometric analysis of Dectin-2 expression after GM-CSF culture; assay type: cell-based; conditions: 24 hr, GM-CSF 50 ng/mL
Method: (§2) FIG. 4A-4D. GM-CSF induces Dectin-2 expression and sensitizes tumors to Dectin-2 stimuli. (FIG. 4A-4C) Murine (FIG. 4A, FIG. 4B) and human (FIG. 4C) monocytes were cultured for 24 hr in media supplemented or not with GM-CSF (50 ng/mL) prior to flow cytometric analysis of Dectin-2 expression (FIG. 4A, FIG. 4C) or stimulation with furfurman and analysis of TNFα production (FIG. 4B). […] (FIG. 4D) Mice bearing s.c. CT26 tumors were treated with mannan (i.v.) and/or GM-CSF (i.t.) starting on day 6 post-tumor implantation.
as §2, with “(FIG.” for “FIG. 4A-4D. GM-CSF induces Dectin-2 expression and sensitizes tumors to Dectin-2 stimuli. (FIG.”, “GM-CSF production.” for “TNFα production (FIG. 4B).”

murine monocytes = assay: as above; assay type: cell-based; conditions: 24 hr, GM-CSF 50 ng/mL
Method: as §2
as §2, with “(FIG.” for “FIG. 4A-4D. GM-CSF induces Dectin-2 expression and sensitizes tumors to Dectin-2 stimuli. (FIG.”, “GM-CSF production.” for “TNFα production (FIG. 4B).”

s.c. CT26 tumors = assay: Mannan (i.v.) and/or GM-CSF (i.t.) in s.c. CT26 tumors; assay type: in vivo, mice; conditions: GM-CSF i.t. with mannan i.v.
Method: as §2
as §2, with “(FIG.” for “FIG. 4A-4D. GM-CSF induces Dectin-2 expression and sensitizes tumors to Dectin-2 stimuli. (FIG.”, “GM-CSF production.” for “TNFα production (FIG. 4B).”

| Molecule | high-mannose glycans on the cell surface (PDAC cells) | TAM activation by treated tumor cells (cytokine production, tumor cell uptake) [1] | T cell infiltration into tumors (subcutaneous PDAC tumors) | high-mannose glycan display by tumor cells in vivo (subcutaneous PDAC tumors) | Dectin-2 expression (human monocytes) | Dectin-2 expression (murine monocytes) | sensitization of tumors to Dectin-2 stimuli (tumor volume) (s.c. CT26 tumors) |
| --- | --- | --- | --- | --- | --- | --- | --- |
| O=C1N[C@@H]2[C@@H](O)[C@@H](O)[C@H](O)[C@@H](CO)N2C1=O [kifunensine] | sharp increase | inducing proinflammatory cytokine production and tumor cell uptake | led to T cell infiltration into tumors | increased high-mannose glycan display by tumor cells | – | – | – |
| GM-CSF: cytokine that induces Dectin-2 expression by myeloid cells | – | – | – | – | induced Dectin-2 expression | induced Dectin-2 expression | sensitized tumors to Dectin-2 stimuli |
